ChEMBL document CHEMBL1134939, “A survey of cyclic replacements for the central diamide moiety of inhibitors of inosine monophosphate dehydrogenase” (Bioorg Med Chem Lett, 2002)
pIC50: −log10 of the molar value.

What was measured:
[1] = biological target: T1, Inosine-5'-monophosphate dehydrogenase 2 (Homo sapiens, UniProt P12268); test: Inhibitory concentration required against Inosine Monophosphate Dehydrogenase II (IMPDH II) was determined in vitro at a concentration 100 uM
[2] = biological target: T1, Inosine-5'-monophosphate dehydrogenase 2; test: Inhibition of Inosine Monophosphate Dehydrogenase II (IMPDH II)
[3] = biological target: T1, Inosine-5'-monophosphate dehydrogenase 2; test: Inhibitory concentration required against Inosine Monophosphate Dehydrogenase II (IMPDH II) was determined in vitro at a concentration 500 uM

Compound | pIC50 [2] | further results
COc1cc(Nc2nc(-c3ccccc3)c[nH]2)ccc1-c1cnco1 | – | inhibition [1]: 7%
COc1cc(-c2ccccc2)nc(Nc2ccc(-c3cnco3)c(OC)c2)n1 | 6.96 | –
COc1cc(Nc2cc(-c3ccccc3)on2)ccc1-c1cnco1 | 6.92 | –
COc1cc(Nc2cnc(-c3ccccc3)s2)ccc1-c1cnco1 | 6.12 | –
COc1cc(Nc2nnc(-c3ccccc3)s2)ccc1-c1cnco1 | 6.48 | –
COc1cc(Nc2nc(-c3ccccc3)cs2)ccc1-c1cnco1 | 6.52 | –
COc1cc(Nc2cccc(-c3ccccc3)c2)ccc1-c1cnco1 | – | inhibition [3]: 30%
COc1cc(NC2=NCC(c3ccccc3)O2)ccc1-c1cnco1 (stereo unspecified) | 6.96 | –
COc1cc(Nc2nnc(-c3ccccc3)o2)ccc1-c1cnco1 | 7.36 | –
COc1cc(Nc2noc(-c3ccccc3)n2)ccc1-c1cnco1 | 7.23 | –
COc1cc(Nc2nnc(-c3ccccc3)[nH]2)ccc1-c1cnco1 | 6.72 | –
